Measured values as given in the NIST ThermoML archive (doi:10.1021/je060271a).

Conditions: 303.15 K, Liquid, Vibrating tube method

CCCCC(=O)OCC(COC(=O)CCCC)(COC(=O)CCCC)COC(=O)CCCC [pentaerythritol tetrapentanoate]
Conditions	mass density [kg/m3]
1387.7 kPa	1011.7
1391.5 kPa	1011.7
1395 kPa	1011.6
1398.3 kPa	1011.8
1401.8 kPa	1011.7
1405.8 kPa	1011.7
1409.2 kPa	1011.8
1413.1 kPa	1011.7
1416.4 kPa	1011.8
1419.7 kPa	1011.8
1423.1 kPa	1011.7
1427 kPa	1011.8
1430.8 kPa	1011.8
1434.2 kPa	1011.9
1437.9 kPa	1011.6
1441.9 kPa	1011.8
1445.5 kPa	1011.7
1449 kPa	1011.8
1453.3 kPa	1011.8
1456.6 kPa	1011.8
1460.5 kPa	1011.7
1464.6 kPa	1011.9
1467.9 kPa	1011.8
1471.8 kPa	1011.8
1475.9 kPa	1011.8
1479.9 kPa	1011.8
1483.5 kPa	1011.8
1487 kPa	1011.7
1491.7 kPa	1011.8
1495.5 kPa	1011.9
1499.2 kPa	1011.8
1503.7 kPa	1011.9
1507.5 kPa	1011.7
1511.2 kPa	1011.8
1515 kPa	1011.7
1519.8 kPa	1011.7
1523.7 kPa	1011.8
1527.3 kPa	1011.8
1532.2 kPa	1011.8
1536 kPa	1011.7
1540 kPa	1011.8
1544.5 kPa	1011.8
1548.8 kPa	1011.7
1552.7 kPa	1011.8
1556.3 kPa	1011.9
1561.3 kPa	1011.9
1565.3 kPa	1011.8
1569.5 kPa	1011.8
1573.5 kPa	1011.9
1577.5 kPa	1011.9
1581.8 kPa	1011.9
1585.8 kPa	1011.8
1590.8 kPa	1011.9
1595 kPa	1011.8
1599 kPa	1011.9
1604.2 kPa	1011.9
1608.2 kPa	1011.9
1612.5 kPa	1011.9
1617.8 kPa	1012
1621.9 kPa	1011.9
1626.6 kPa	1011.9
1630.8 kPa	1011.8
1635 kPa	1011.9
1640 kPa	1012
1644.2 kPa	1012
1648.7 kPa	1011.8
1653.9 kPa	1012.1
1658.9 kPa	1011.8
1663.4 kPa	1011.9
1668.6 kPa	1011.9
1673.2 kPa	1011.8
1677.7 kPa	1011.8
1683.2 kPa	1011.9
1687.7 kPa	1012.1
1692.6 kPa	1012
1697.3 kPa	1011.9
1703 kPa	1011.9
1707.7 kPa	1012
1712 kPa	1011.9
1717.8 kPa	1011.9
1722.5 kPa	1011.9
1727.3 kPa	1012
1732.9 kPa	1011.9
1737.7 kPa	1012.1
1742.9 kPa	1012.1
1747.8 kPa	1012
1753.7 kPa	1011.9
1758.4 kPa	1012
1763.8 kPa	1012
1768.6 kPa	1012
1774.7 kPa	1011.9
1779.9 kPa	1012.1
1784.9 kPa	1012
1791 kPa	1011.9
1796 kPa	1012
1800.9 kPa	1012.1
1807.3 kPa	1012
1812.5 kPa	1012
1817.6 kPa	1012.1
1824 kPa	1011.9
1829.5 kPa	1012.1
1834.9 kPa	1012
1840.1 kPa	1012
1846.6 kPa	1012
1852.1 kPa	1012
1857.5 kPa	1012
1862.9 kPa	1012
1869.5 kPa	1012.1
1874.8 kPa	1012.1
1881.8 kPa	1012
1887 kPa	1012.1
1892.9 kPa	1012
1898.6 kPa	1012.1
1904.4 kPa	1012
1911.3 kPa	1012.1
1916.8 kPa	1012.1
1923.1 kPa	1012.1
1930 kPa	1012
1935.6 kPa	1012.1
1941.3 kPa	1011.9
1947.2 kPa	1012.1
1954.3 kPa	1012
1960.6 kPa	1012
1966.7 kPa	1012.1
1972.9 kPa	1012.1
1980.4 kPa	1012.1
1986.3 kPa	1012.1
1992.3 kPa	1012.1
1999.8 kPa	1012.1
2006.4 kPa	1012.1
2012.5 kPa	1012.1
2018.9 kPa	1012.1
2026.4 kPa	1012.1
2033.5 kPa	1012.1
2039.7 kPa	1012.1
2046.1 kPa	1012.1
2053.9 kPa	1012.3
2060.5 kPa	1012.1
2068.3 kPa	1012.2
2074.9 kPa	1012.1
2081.9 kPa	1012.2
2090 kPa	1012.3
2096.8 kPa	1012.1
2103.5 kPa	1012.2
2109.8 kPa	1012.1
2118.5 kPa	1012.2
2125.2 kPa	1012.1
2132.5 kPa	1012.3
2140.9 kPa	1012.4
2147.8 kPa	1012.2
2155.4 kPa	1012.3
2162.7 kPa	1012.2
2170 kPa	1012.3
2178.5 kPa	1012.3
2185.3 kPa	1012.3
2192.6 kPa	1012.2
2201.3 kPa	1012.3
2208.7 kPa	1012.3
2216.2 kPa	1012.1
2223.6 kPa	1012.2
2232.7 kPa	1012.2
2240.1 kPa	1012.3
2247.8 kPa	1012.4
2256.6 kPa	1012.3
2264.4 kPa	1012.4
2272.4 kPa	1012.3
2281.6 kPa	1012.4
2289.2 kPa	1012.3
2297.4 kPa	1012.3
2305.2 kPa	1012.3
2314.7 kPa	1012.3
2322.9 kPa	1012.2
2330.3 kPa	1012.3
2339.9 kPa	1012.4
2348.2 kPa	1012.5
2356.9 kPa	1012.5
2365.6 kPa	1012.3
2373.5 kPa	1012.5
2383.8 kPa	1012.3
2391.9 kPa	1012.4
2402.3 kPa	1012.4
2411 kPa	1012.3
2419.3 kPa	1012.5
2429.4 kPa	1012.4
2438.1 kPa	1012.4
2446.9 kPa	1012.4
2455.6 kPa	1012.5
2464.8 kPa	1012.4
2475.4 kPa	1012.4
2484.4 kPa	1012.5
2493.4 kPa	1012.4
2504.2 kPa	1012.4
2513.4 kPa	1012.4
2522.4 kPa	1012.5
2531.8 kPa	1012.5
2543 kPa	1012.6
2552.4 kPa	1012.5
2561.7 kPa	1012.5
2573.2 kPa	1012.4
2582.7 kPa	1012.6
2592.3 kPa	1012.5
2601.8 kPa	1012.5
2613.6 kPa	1012.6
2623.2 kPa	1012.5
2632.7 kPa	1012.5
2642.9 kPa	1012.6
2654.9 kPa	1012.6
2664.6 kPa	1012.5
2676.8 kPa	1012.5
2686.8 kPa	1012.6
2697.2 kPa	1012.6
2707.4 kPa	1012.6
2719.9 kPa	1012.6
2730.3 kPa	1012.6
2740.9 kPa	1012.6
2751.7 kPa	1012.5
2764.8 kPa	1012.6
2775.1 kPa	1012.6
2785.8 kPa	1012.7
2799.2 kPa	1012.6
2810.1 kPa	1012.7
2820.9 kPa	1012.7
2833.5 kPa	1012.7
2844.6 kPa	1012.7
2855.9 kPa	1012.6
2869.2 kPa	1012.7
2880.7 kPa	1012.7
2892.5 kPa	1012.8
2904.8 kPa	1012.8
2916.2 kPa	1012.6
2930.1 kPa	1012.7
2941.7 kPa	1012.8
2953.3 kPa	1012.8
2967.4 kPa	1012.8
2979.5 kPa	1012.7
2991.5 kPa	1012.8
3006.1 kPa	1012.7
3018.4 kPa	1012.8
3030.5 kPa	1012.7
3043.3 kPa	1012.8
3058.9 kPa	1012.8
3070.7 kPa	1012.9
3083.2 kPa	1012.8
3096 kPa	1012.8
3108.7 kPa	1012.8
3123.9 kPa	1012.9
3136.6 kPa	1012.8
3149.9 kPa	1013
3165.5 kPa	1012.9
3179.1 kPa	1013
3192.6 kPa	1012.9
3205.9 kPa	1012.9
3222.1 kPa	1012.9
3236.3 kPa	1012.9
3249.8 kPa	1012.8
3263.8 kPa	1013
3280.5 kPa	1013
3294.2 kPa	1013
3310.8 kPa	1013
3324.8 kPa	1013
3339.2 kPa	1013.1
3353.6 kPa	1013
3368.2 kPa	1013
3385.5 kPa	1013
3400.2 kPa	1013.1
3415.1 kPa	1013.1
3433 kPa	1013.1
3448.4 kPa	1012.9
3463.3 kPa	1013.1
3478.2 kPa	1013.1
3496.8 kPa	1013.2
3512 kPa	1013
3527.8 kPa	1013.1
3546.5 kPa	1013.2
3562.5 kPa	1013.1
3578.4 kPa	1013.2
3594 kPa	1013.2
3613.4 kPa	1013.2
3630 kPa	1013
3646.7 kPa	1013.2
3663.3 kPa	1013.1
3683.1 kPa	1013.2
3699.3 kPa	1013.2
3716.7 kPa	1013.2
3734 kPa	1013.3
3753.9 kPa	1013.3
3771.2 kPa	1013.3
3789.1 kPa	1013.3
3806.2 kPa	1013.3
3827.7 kPa	1013.4
3845.4 kPa	1013.4
3863.8 kPa	1013.3
3881.9 kPa	1013.3
3903.9 kPa	1013.3
3927.5 kPa	1013.3
4003.7 kPa	1013.4
4122.2 kPa	1013.5
4149.2 kPa	1013.6
4165.7 kPa	1013.5
4185.8 kPa	1013.5
4202.9 kPa	1013.6
4220.2 kPa	1013.5
4238.1 kPa	1013.5
4257.1 kPa	1013.5
4275.3 kPa	1013.5
4293.5 kPa	1013.7
4311 kPa	1013.6
4333.3 kPa	1013.7
4464.7 kPa	1013.8
4605.8 kPa	1013.8
4684.8 kPa	1013.8
4702.2 kPa	1013.9
4719.7 kPa	1014
4737.5 kPa	1013.9
4776.3 kPa	1013.9
4798.6 kPa	1013.9
4817.1 kPa	1014
4836 kPa	1013.9
4855.9 kPa	1014
4875 kPa	1013.9
4897.8 kPa	1014.2
